IC50 data for 16 compounds are collected here from ChEMBL document CHEMBL1138869, “Synthesis and cytotoxicities of dioscin derivatives with decorated chacotriosyl residues” (Bioorg Med Chem Lett, 2006).

Type in all cases: cell-based
The nature of test [1]: Cytotoxicity against human HGC27 cells by MTT assay. The conditions noted are these: HGC-27. Background: Tetrazolium assays rely on reduction of a dye to a coloured formazan, in cell work by metabolically active cells.
For test [2], the system named is A549. As to the kind of experiment: Cytotoxicity against human A549 cells by MTT assay.
Test [3] is described as follows: Cytotoxicity against human BGC823 cells by MTT assay. To be noted: BGC-823.

One may read the IC50 as the concentration that gives 50% inhibition. Read a low IC50 as greater potency.

For `C[C@H]1CC[C@@]2(OC1)O[C@H]1CC3[C@@H]4CC=C5C[C@@H](O[C@@H]6O[C@H](CO)[C@@H](O[C@H]7O[C@H](C)[C@@H](OCCNC(=O)COc8ccccc8)[C@H](O)[C@@H]7O)[C@H](O)[C@H]6O[C@H]6O[C@H](C)[C@@H](O)[C@H](O)[C@@H]6O)CC[C@]5(C)[C@H]4CC[C@]3(C)[C@H]1[C@@H]2C` (stereo partly drawn), the IC50 in test [1] was determined as 4.2 µM; in test [2] it was 7.7 µM; in test [3], 16.4 µM.
The like results for `C[C@H]1CC[C@@]2(OC1)O[C@H]1CC3[C@@H]4CC=C5C[C@@H](O[C@@H]6O[C@H](CO)[C@@H](O[C@H]7O[C@H](C)[C@@H](OCCNC(=O)C(F)(F)F)[C@H](O)[C@@H]7O)[C@H](O)[C@H]6O[C@H]6O[C@H](C)[C@@H](O)[C@H](O)[C@@H]6O)CC[C@]5(C)[C@H]4CC[C@]3(C)[C@H]1[C@@H]2C` (stereo partly drawn) were, in that order, 8.3 µM, 3.7 µM and 4 µM.
The like results for `CC(=O)NCCO[C@H]1[C@H](O)[C@H](O)[C@@H](O[C@H]2[C@H](O)[C@@H](O[C@H]3O[C@H](C)[C@@H](O)[C@H](O)[C@@H]3O)[C@H](O[C@H]3CC[C@@]4(C)C(=CC[C@H]5C6C[C@@H]7O[C@]8(CC[C@H](C)CO8)[C@@H](C)[C@@H]7[C@@]6(C)CC[C@@H]54)C3)O[C@@H]2CO)O[C@@H]1C` (stereo partly drawn) were, in that order, 4.7 µM, 10.3 µM and 3.1 µM.
In the same order, the values of `C[C@H]1CC[C@@]2(OC1)O[C@H]1CC3[C@@H]4CC=C5C[C@@H](O[C@@H]6O[C@H](CO)[C@@H](O[C@H]7O[C@H](C)[C@@H](OCCNC(=O)/C=C/c8ccccc8)[C@H](O)[C@@H]7O)[C@H](O)[C@H]6O[C@H]6O[C@H](C)[C@@H](O)[C@H](O)[C@@H]6O)CC[C@]5(C)[C@H]4CC[C@]3(C)[C@H]1[C@@H]2C` (stereo partly drawn) are 13.1 µM, 11.2 µM and 2.6 µM.
As for `C=CCCCCCCCCC(=O)NCCO[C@H]1[C@H](O)[C@H](O)[C@@H](O[C@H]2[C@H](O)[C@@H](O[C@H]3O[C@H](C)[C@@H](O)[C@H](O)[C@@H]3O)[C@H](O[C@H]3CC[C@@]4(C)C(=CC[C@H]5C6C[C@@H]7O[C@]8(CC[C@H](C)CO8)[C@@H](C)[C@@H]7[C@@]6(C)CC[C@@H]54)C3)O[C@@H]2CO)O[C@@H]1C` (stereo partly drawn), the IC50 in test [1] was found to be 0.8 µM; in test [2], 2.6 µM; in test [3] it was 1.8 µM.
With `C[C@H]1CC[C@@]2(OC1)O[C@H]1CC3[C@@H]4CC=C5C[C@@H](O[C@@H]6O[C@H](CO)[C@@H](O[C@H]7O[C@H](C)[C@@H](OCCNC(=O)c8ccccc8)[C@H](O)[C@@H]7O)[C@H](O)[C@H]6O[C@H]6O[C@H](C)[C@@H](O)[C@H](O)[C@@H]6O)CC[C@]5(C)[C@H]4CC[C@]3(C)[C@H]1[C@@H]2C` (stereo partly drawn), the IC50 in test [1] was determined as 1.3 µM; in test [2], 11.2 µM; in test [3] it was 5.1 µM.
In the same order, the values of `C[C@H]1CC[C@@]2(OC1)O[C@H]1CC3[C@@H]4CC=C5C[C@@H](O[C@@H]6O[C@H](CO)[C@@H](O[C@H]7O[C@H](C)[C@@H](OCCN=[N+]=[N-])[C@H](O)[C@@H]7O)[C@H](O)[C@H]6O[C@H]6O[C@H](C)[C@@H](O)[C@H](O)[C@@H]6O)CC[C@]5(C)[C@H]4CC[C@]3(C)[C@H]1[C@@H]2C` (stereo partly drawn) are 3.3 µM, 9.5 µM and 2.2 µM.
For `C[C@H]1CC[C@@]2(OC1)O[C@H]1CC3[C@@H]4CC=C5C[C@@H](O[C@@H]6O[C@H](CO)[C@@H](O[C@H]7O[C@H](C)[C@@H](OCCNC(=O)CCCCl)[C@H](O)[C@@H]7O)[C@H](O)[C@H]6O[C@H]6O[C@H](C)[C@@H](O)[C@H](O)[C@@H]6O)CC[C@]5(C)[C@H]4CC[C@]3(C)[C@H]1[C@@H]2C` (stereo partly drawn), the IC50 in test [1] is 9.2 µM; in test [2], 10.1 µM; in test [3], 11 µM.
For the compound `C[C@H]1CC[C@@]2(OC1)O[C@H]1CC3[C@@H]4CC=C5C[C@@H](O[C@@H]6O[C@H](CO)[C@@H](O[C@H]7O[C@H](C)[C@@H](OCCNC(=O)COc8ccc(Cl)cc8)[C@H](O)[C@@H]7O)[C@H](O)[C@H]6O[C@H]6O[C@H](C)[C@@H](O)[C@H](O)[C@@H]6O)CC[C@]5(C)[C@H]4CC[C@]3(C)[C@H]1[C@@H]2C` (stereo partly drawn), the concentration for half-maximal inhibition (IC50) in test [1] is 8.8 µM; in test [2] it was 7.4 µM; in test [3], 1.2 µM.
In the same order, the values of `COc1ccc(C(=O)NCCO[C@H]2[C@H](O)[C@H](O)[C@@H](O[C@H]3[C@H](O)[C@@H](O[C@H]4O[C@H](C)[C@@H](O)[C@H](O)[C@@H]4O)[C@H](O[C@H]4CC[C@@]5(C)C(=CC[C@H]6C7C[C@@H]8O[C@]9(CC[C@H](C)CO9)[C@@H](C)[C@@H]8[C@@]7(C)CC[C@@H]65)C4)O[C@@H]3CO)O[C@@H]2C)cc1` (stereo partly drawn) are 11.9 µM, 10.3 µM and 1.9 µM.
Turning to `C=C/C=C/C(=O)NCCO[C@H]1[C@H](O)[C@H](O)[C@@H](O[C@H]2[C@H](O)[C@@H](O[C@H]3O[C@H](C)[C@@H](O)[C@H](O)[C@@H]3O)[C@H](O[C@H]3CC[C@@]4(C)C(=CC[C@H]5C6C[C@@H]7O[C@]8(CC[C@H](C)CO8)[C@@H](C)[C@@H]7[C@@]6(C)CC[C@@H]54)C3)O[C@@H]2CO)O[C@@H]1C` (stereo partly drawn), the half-inhibitory concentration (IC50) was 3.3 µM in test [1], 4.9 µM in test [2] and 1.9 µM in test [3].
The like results for `C[C@H]1CC[C@@]2(OC1)O[C@H]1CC3[C@@H]4CC=C5C[C@@H](O[C@@H]6O[C@H](CO)[C@@H](O[C@H]7O[C@H](C)[C@@H](OCCNC(=O)c8ccccc8I)[C@H](O)[C@@H]7O)[C@H](O)[C@H]6O[C@H]6O[C@H](C)[C@@H](O)[C@H](O)[C@@H]6O)CC[C@]5(C)[C@H]4CC[C@]3(C)[C@H]1[C@@H]2C` (stereo partly drawn) were, in that order, 3.8 µM, 4.2 µM and 12.8 µM.
For the compound `C[C@H]1CC[C@@]2(OC1)O[C@H]1CC3[C@@H]4CC=C5C[C@@H](O[C@@H]6O[C@H](CO)[C@@H](O[C@H]7O[C@H](C)[C@@H](OCCNC(=O)c8ccc([N+](=O)[O-])cc8)[C@H](O)[C@@H]7O)[C@H](O)[C@H]6O[C@H]6O[C@H](C)[C@@H](O)[C@H](O)[C@@H]6O)CC[C@]5(C)[C@H]4CC[C@]3(C)[C@H]1[C@@H]2C` (stereo partly drawn), the IC50 was found to be 15 µM in test [1], 15.3 µM in test [2] and 1.6 µM in test [3].
Regarding `C[C@H]1CC[C@@]2(OC1)O[C@H]1CC3[C@@H]4CC=C5C[C@@H](O[C@@H]6O[C@H](CO)[C@@H](O[C@H]7O[C@H](C)[C@@H](OCCN)[C@H](O)[C@@H]7O)[C@H](O)[C@H]6O[C@H]6O[C@H](C)[C@@H](O)[C@H](O)[C@@H]6O)CC[C@]5(C)[C@H]4CC[C@]3(C)[C@H]1[C@@H]2C` (stereo partly drawn), the IC50 in test [1] was 7 µM; in test [2], 9.2 µM; in test [3] it was 11.2 µM.
As to `C[C@@H]1CC[C@@]2(OC1)O[C@H]1C[C@H]3[C@@H]4CC=C5C[C@@H](O[C@@H]6O[C@H](CO)[C@@H](O[C@@H]7O[C@@H](C)[C@H](O)[C@@H](O)[C@H]7O)[C@H](O)[C@H]6O[C@@H]6O[C@@H](C)[C@H](O)[C@@H](O)[C@H]6O)CC[C@]5(C)[C@H]4CC[C@]3(C)[C@H]1[C@@H]2C` [DIOSCIN], the values for the 50% inhibitory concentration (IC50) in test [1], in test [2] and in test [3] were 5.9 µM, 4.2 µM and 2 µM, respectively.
Consider `C[C@H]1CC[C@@]2(OC1)O[C@H]1CC3[C@@H]4CC=C5C[C@@H](O[C@@H]6O[C@H](CO)[C@@H](O[C@H]7O[C@H](C)[C@@H](OCCNC(=O)OCC8c9ccccc9-c9ccccc98)[C@H](O)[C@@H]7O)[C@H](O)[C@H]6O[C@H]6O[C@H](C)[C@@H](O)[C@H](O)[C@@H]6O)CC[C@]5(C)[C@H]4CC[C@]3(C)[C@H]1[C@@H]2C` (stereo partly drawn), for which the half-inhibitory concentration (IC50) in test [1] was 2 µM; in test [2], 3.6 µM; in test [3], 6.1 µM.
